Experiment [1] addresses PKA (Homo sapiens, UniProt P17612). Kind of experiment: PKA inhibition, ADP-Glo Kinase Assay. On the technique in general: ADP-Glo turns the ADP formed in a reaction into a luminescent signal.
Experiment [2] addresses T1, GRK2 (Bos taurus, UniProt P21146, S670A, species not given).
T1 sequence (P21146 1-689 S670A): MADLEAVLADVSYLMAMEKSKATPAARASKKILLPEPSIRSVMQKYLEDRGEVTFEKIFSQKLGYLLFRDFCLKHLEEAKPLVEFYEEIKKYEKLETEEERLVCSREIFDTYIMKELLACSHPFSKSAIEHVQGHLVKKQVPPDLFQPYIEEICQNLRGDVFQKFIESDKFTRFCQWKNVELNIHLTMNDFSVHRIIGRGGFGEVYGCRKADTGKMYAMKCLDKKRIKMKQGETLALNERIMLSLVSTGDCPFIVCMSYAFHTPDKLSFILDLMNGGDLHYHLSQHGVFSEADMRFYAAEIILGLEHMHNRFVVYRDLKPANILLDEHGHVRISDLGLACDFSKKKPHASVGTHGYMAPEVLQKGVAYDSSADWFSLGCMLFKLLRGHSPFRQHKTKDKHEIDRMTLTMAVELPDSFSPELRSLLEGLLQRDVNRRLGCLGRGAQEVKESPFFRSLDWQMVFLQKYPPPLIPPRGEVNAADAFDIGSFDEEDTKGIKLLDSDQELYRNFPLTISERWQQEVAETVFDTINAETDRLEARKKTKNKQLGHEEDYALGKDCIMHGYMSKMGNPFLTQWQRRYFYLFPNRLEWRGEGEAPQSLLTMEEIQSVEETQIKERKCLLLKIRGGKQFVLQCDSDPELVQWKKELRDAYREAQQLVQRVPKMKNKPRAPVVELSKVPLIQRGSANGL
Description: GRK2 kinase inhibition. Type of experiment: biochemical.

Experiment [3] deals with ROCK1 (Homo sapiens, UniProt Q13464). Description: ROCK1 inhibition, ADP-Glo Kinase Assay.
Chain of ROCK1 (Q13464 whole entry, species assumed): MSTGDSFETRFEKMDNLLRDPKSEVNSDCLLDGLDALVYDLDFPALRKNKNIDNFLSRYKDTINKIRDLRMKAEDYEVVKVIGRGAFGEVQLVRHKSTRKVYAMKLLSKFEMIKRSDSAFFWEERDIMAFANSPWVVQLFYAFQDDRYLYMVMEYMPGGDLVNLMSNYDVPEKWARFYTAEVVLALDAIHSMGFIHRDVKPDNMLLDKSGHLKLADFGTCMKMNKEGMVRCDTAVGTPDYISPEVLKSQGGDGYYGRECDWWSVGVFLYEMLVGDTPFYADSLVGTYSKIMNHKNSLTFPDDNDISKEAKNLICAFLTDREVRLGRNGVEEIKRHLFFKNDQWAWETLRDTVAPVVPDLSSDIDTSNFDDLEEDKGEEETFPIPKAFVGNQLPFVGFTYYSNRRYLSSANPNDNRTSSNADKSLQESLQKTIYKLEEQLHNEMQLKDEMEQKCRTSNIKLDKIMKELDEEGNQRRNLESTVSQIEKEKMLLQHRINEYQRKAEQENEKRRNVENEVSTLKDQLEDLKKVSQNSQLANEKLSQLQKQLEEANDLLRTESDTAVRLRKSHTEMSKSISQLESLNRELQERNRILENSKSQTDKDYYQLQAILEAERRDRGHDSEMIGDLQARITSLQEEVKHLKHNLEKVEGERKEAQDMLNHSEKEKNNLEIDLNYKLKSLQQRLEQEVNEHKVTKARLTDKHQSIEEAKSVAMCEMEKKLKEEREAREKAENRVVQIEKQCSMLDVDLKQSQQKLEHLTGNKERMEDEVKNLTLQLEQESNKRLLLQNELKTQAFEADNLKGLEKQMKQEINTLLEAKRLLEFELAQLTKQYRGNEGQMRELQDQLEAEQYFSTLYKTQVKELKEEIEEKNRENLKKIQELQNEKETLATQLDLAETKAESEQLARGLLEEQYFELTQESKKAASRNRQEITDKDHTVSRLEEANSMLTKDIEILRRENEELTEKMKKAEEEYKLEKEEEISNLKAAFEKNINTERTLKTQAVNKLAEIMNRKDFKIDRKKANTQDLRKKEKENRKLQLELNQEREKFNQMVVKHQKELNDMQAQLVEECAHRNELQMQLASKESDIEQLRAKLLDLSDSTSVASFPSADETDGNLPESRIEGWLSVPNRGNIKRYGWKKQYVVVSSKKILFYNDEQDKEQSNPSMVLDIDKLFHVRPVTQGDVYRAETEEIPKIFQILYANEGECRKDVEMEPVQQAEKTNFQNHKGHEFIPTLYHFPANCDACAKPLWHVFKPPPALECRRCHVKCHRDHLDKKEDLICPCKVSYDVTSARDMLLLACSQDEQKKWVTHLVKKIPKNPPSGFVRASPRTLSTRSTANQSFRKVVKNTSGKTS

Some results are limits rather than exact numbers.

Turning to `CC1=C(C(=O)Nc2ccc3[nH]ncc3c2)C(c2ccc(F)c(C(=O)O)c2)NC(=O)N1` (stereo not drawn) [Compound 10, 5-(5-((1H-Indazol-5-yl)carbamoyl)-6-methyl-2-oxo-1,2,3,4-tetrahydropyrimidin-4-yl)-2-fluorobenzoic acid], the “loss in potency against PKA relative to 2” value in experiment [1] is listed as 2 fold. Further, the “loss in potency against GRK2 relative to 2” value in experiment [2] is 20 fold.

A word on the IC50: it is the concentration at which inhibition is half-maximal. Lower therefore signals inhibition by little substance. As to `CNC(=O)c1cc(C2NC(=O)NC(C)=C2C(=O)Nc2ccc3[nH]ncc3c2)ccc1F` (stereo not drawn) [Compound 12a, 4-(4-Fluoro-3-(methylcarbamoyl)phenyl)-N-(1H-indazol-5-yl)-6-methyl-2-oxo-1,2,3,4-tetrahydropyrimidine-5-carboxamide], the IC50 in experiment [1] was > 100 µM. For the same compound, the “loss in potency against GRK2 relative to 2” value in experiment [2] was 5 fold.

`CC1=C(C(=O)Nc2ccc3[nH]ncc3c2)C(c2ccc(F)c(C(=O)NCc3ccccc3)c2)NC(=O)N1` (stereo not drawn) [Compound 12b, 4-(3-(Benzylcarbamoyl)-4-fluorophenyl)-N-(1H-indazol-5-yl)-6-methyl-2-oxo-1,2,3,4-tetrahydropyrimidine-5-carboxamide]: the half-inhibitory concentration (IC50) in experiment [1] is > 100 µM.

In the case of `CC1=C(C(=O)Nc2ccc3[nH]ncc3c2)C(c2ccc(F)c(C(=O)NCc3cccc(F)c3)c2)NC(=O)N1` (stereo not drawn) [Compound 12c, 4-(4-Fluoro-3-((3-fluorobenzyl)carbamoyl)phenyl)-N-(1H-indazol-5-yl)-6-methyl-2-oxo-1,2,3,4-tetrahydropyrimidine-5-carboxamide], the IC50 in experiment [1] is > 100 µM.

Consider `COc1ccccc1CNC(=O)c1cc(C2NC(=O)NC(C)=C2C(=O)Nc2ccc3[nH]ncc3c2)ccc1F` (stereo not drawn) [Compound 12e, 4-(4-Fluoro-3-((2-methoxybenzyl)carbamoyl)phenyl)-N-(1H-indazol-5-yl)-6-methyl-2-oxo-1,2,3,4-tetrahydropyrimidine-5-carboxamide], for which the IC50 in experiment [1] is > 100 µM.

`COc1cccc(CNC(=O)c2cc(C3NC(=O)NC(C)=C3C(=O)Nc3ccc4[nH]ncc4c3)ccc2F)c1` (stereo not drawn) [Compound 12f, 4-(4-Fluoro-3-((3-methoxybenzyl)carbamoyl)phenyl)-N-(1H-indazol-5-yl)-6-methyl-2-oxo-1,2,3,4-tetrahydropyrimidine-5-carboxamide]: the half-maximal inhibitory concentration (IC50) in experiment [1] was > 100 µM.

Regarding `COc1ccc(CNC(=O)c2cc(C3NC(=O)NC(C)=C3C(=O)Nc3ccc4[nH]ncc4c3)ccc2F)cc1` (stereo not drawn) [Compound 12g, 4-(4-Fluoro-3-((4-methoxybenzyl)carbamoyl)phenyl)-N-(1H-indazol-5-yl)-6-methyl-2-oxo-1,2,3,4-tetrahydropyrimidine-5-carboxamide], the 50% inhibitory concentration (IC50) in experiment [1] is > 100 µM.

Consider `CC1=C(C(=O)Nc2ccc3[nH]ncc3c2)C(c2ccc(F)c(C(=O)NCc3ccccn3)c2)NC(=O)N1` (stereo not drawn) [Compound 12h, 4-(4-Fluoro-3-((pyridin-2-ylmethyl)carbamoyl)phenyl)-N-(1H-indazol-5-yl)-6-methyl-2-oxo-1,2,3,4-tetrahydropyrimidine-5-carboxamide], for which the IC50 in experiment [3] is ~10 nM; in experiment [1], > 100 µM. Moreover, in experiment [3], the “increase in potency for ROCK1 over 2” value was 10 fold.

Take `CC1=C(C(=O)Nc2ccc3[nH]ncc3c2)C(c2ccc(F)c(C(=O)NCCc3ccccn3)c2)NC(=O)N1` (stereo not drawn) [Compound 12i, 4-(4-Fluoro-3-((2-(pyridin-2-yl)ethyl)carbamoyl)phenyl)-N-(1H-indazol-5-yl)-6-methyl-2-oxo-1,2,3,4-tetrahydropyrimidine-5-carboxamide]: the IC50 in experiment [1] is > 100 µM.

Turning to `CC1=C(C(=O)Nc2ccc3[nH]ncc3c2)C(c2ccc(F)c(C(=O)NCCc3ccncc3)c2)NC(=O)N1` (stereo not drawn) [Compound 12j, 4-(4-Fluoro-3-((2-(pyridin-4-yl)ethyl)carbamoyl)phenyl)-N-(1H-indazol-5-yl)-6-methyl-2-oxo-1,2,3,4-tetrahydropyrimidine-5-carboxamide], in experiment [1], the concentration for half-maximal inhibition (IC50) is > 100 µM.

As to `CC1=C(C(=O)Nc2ccc3[nH]ncc3c2)C(c2ccc(F)c(C(=O)NCc3c(C(F)(F)F)cccc3C(F)(F)F)c2)NC(=O)N1` (stereo not drawn) [Compound 12o, 4-(3-((2,6-Bis(trifluoromethyl)benzyl)carbamoyl)-4-fluorophenyl)-N-(1H-indazol-5-yl)-6-methyl-2-oxo-1,2,3,4-tetrahydropyrimidine-5-carboxamide], in experiment [1], the IC50 is > 100 µM.

Turning to `CC1=C(C(=O)Nc2ccc3[nH]ncc3c2)C(c2ccc(F)c(C(=O)NCc3cc(C(F)(F)F)cc(C(F)(F)F)c3)c2)NC(=O)N1` (stereo not drawn) [Compound 12p, 4-(3-((3,5-Bis(trifluoromethyl)benzyl)carbamoyl)-4-fluorophenyl)-N-(1H-indazol-5-yl)-6-methyl-2-oxo-1,2,3,4-tetrahydropyrimidine-5-carboxamide], the half-maximal inhibitory concentration (IC50) in experiment [1] was > 100 µM.

On to `CC1=C(C(=O)Nc2ccc3[nH]ncc3c2)C(c2ccc(F)c(C(=O)NCc3ncccc3C)c2)NC(=O)N1` (stereo not drawn) [Compound 12q, 4-(4-Fluoro-3-(((3-methylpyridin-2-yl)methyl)carbamoyl)phenyl)-N-(1H-indazol-5-yl)-6-methyl-2-oxo-1,2,3,4-tetrahydropyrimidine-5-carboxamide], for which the 50% inhibitory concentration (IC50) in experiment [1] is > 100 µM.

As for `CC1=C(C(=O)Nc2ccc3[nH]ncc3c2)C(c2ccc(F)c(C(=O)NCCc3c(C)cccc3C)c2)NC(=O)N1` (stereo not drawn) [Compound 12r, 4-(3-((2,6-Dimethylphenethyl)carbamoyl)-4-fluorophenyl)-N-(1H-indazol-5-yl)-6-methyl-2-oxo-1,2,3,4-tetrahydropyrimidine-5-carboxamide], the 50% inhibitory concentration (IC50) in experiment [1] is > 100 µM.

Take `CC1=C(C(=O)Nc2ccc3[nH]ncc3c2)C(c2ccc(F)c(CC(=O)NCc3c(C)cccc3C)c2)NC(=O)N1` (stereo not drawn) [Compound 13a, 4-(3-(2-((2,6-Dimethylbenzyl)amino)-2-oxoethyl)-4-fluorophenyl)-N-(1H-indazol-5-yl)-6-methyl-2-oxo-1,2,3,4-tetrahydropyrimidine-5-carboxamide]: the IC50 in experiment [1] was > 100 µM.

Turning to `CC1=C(C(=O)Nc2ccc3[nH]ncc3c2)C(c2ccc(F)c(CC(=O)NCc3c(C(F)(F)F)cccc3C(F)(F)F)c2)NC(=O)N1` (stereo not drawn) [Compound 13b, 4-(3-(2-((2,6-Bis(trifluoromethyl)benzyl)amino)-2-oxoethyl)-4-fluorophenyl)-N-(1H-indazol-5-yl)-6-methyl-2-oxo-1,2,3,4-tetrahydropyrimidine-5-carboxamide], in experiment [1], the IC50 was > 100 µM.

For the compound `COc1cccc(OC)c1CNC(=O)Cc1cc(C2NC(=O)NC(C)=C2C(=O)Nc2ccc3[nH]ncc3c2)ccc1F` (stereo not drawn) [Compound 13c, 4-(3-(2-((2,6-Dimethoxybenzyl)amino)-2-oxoethyl)-4-fluorophenyl)-N-(1H-indazol-5-yl)-6-methyl-2-oxo-1,2,3,4-tetrahydropyrimidine-5-carboxamide], the IC50 in experiment [1] is > 100 µM.

Take `CC1=C(C(=O)N(C)c2ccc3[nH]ncc3c2)C(c2ccc(F)c(C(=O)NCc3c(C)cccc3C)c2)NC(=O)N1` (stereo not drawn) [Compound 20, 4-(3-((2,6-Dimethylbenzyl)carbamoyl)-4-fluorophenyl)-N-(1H-indazol-5-yl)-N,6-dimethyl-2-oxo-1,2,3,4-tetrahydropyrimidine-5-carboxamide]: in experiment [1], the IC50 is > 100 µM. The “decrease in potency at GRK2 compared to 12m” value in experiment [2] is ~70 fold.

For the compound `Fc1ccc([C@@H]2CCNC[C@H]2COc2ccc3c(c2)OCO3)cc1` [Paroxetine, paroxetine, reference compound], the IC50 in experiment [1] was > 100 µM.

For the origin of these results see paper PMC4890168 (Journal of medicinal chemistry, 2016).
